Patent publication US5707989A, “Pyrimido[5,4-D]pyrimidines, medicaments comprising these compounds, their use and processes for their preparation” (Dr. Karl Thomae GmbH, priority 1994, dated 1998)

Key:
Assay type in all cases: cell-based
human EGF-R = target: T1, human EGF-R (Homo sapiens, UniProt P00533); test: Inhibition of EGF-dependent proliferation of F/L-HERc cells; conditions: human EGF 20 ng/ml, 48 hours
T1 construct: expressed in transfected cells; host or cells: F/L-HERc cells: murine IL-3-dependent line FDC-P1 infected with recombinant retrovirus (LXSN vector, GP+E86 packaging line) carrying human EGF-R cDNA
T1 sequence (P00533 25-1210): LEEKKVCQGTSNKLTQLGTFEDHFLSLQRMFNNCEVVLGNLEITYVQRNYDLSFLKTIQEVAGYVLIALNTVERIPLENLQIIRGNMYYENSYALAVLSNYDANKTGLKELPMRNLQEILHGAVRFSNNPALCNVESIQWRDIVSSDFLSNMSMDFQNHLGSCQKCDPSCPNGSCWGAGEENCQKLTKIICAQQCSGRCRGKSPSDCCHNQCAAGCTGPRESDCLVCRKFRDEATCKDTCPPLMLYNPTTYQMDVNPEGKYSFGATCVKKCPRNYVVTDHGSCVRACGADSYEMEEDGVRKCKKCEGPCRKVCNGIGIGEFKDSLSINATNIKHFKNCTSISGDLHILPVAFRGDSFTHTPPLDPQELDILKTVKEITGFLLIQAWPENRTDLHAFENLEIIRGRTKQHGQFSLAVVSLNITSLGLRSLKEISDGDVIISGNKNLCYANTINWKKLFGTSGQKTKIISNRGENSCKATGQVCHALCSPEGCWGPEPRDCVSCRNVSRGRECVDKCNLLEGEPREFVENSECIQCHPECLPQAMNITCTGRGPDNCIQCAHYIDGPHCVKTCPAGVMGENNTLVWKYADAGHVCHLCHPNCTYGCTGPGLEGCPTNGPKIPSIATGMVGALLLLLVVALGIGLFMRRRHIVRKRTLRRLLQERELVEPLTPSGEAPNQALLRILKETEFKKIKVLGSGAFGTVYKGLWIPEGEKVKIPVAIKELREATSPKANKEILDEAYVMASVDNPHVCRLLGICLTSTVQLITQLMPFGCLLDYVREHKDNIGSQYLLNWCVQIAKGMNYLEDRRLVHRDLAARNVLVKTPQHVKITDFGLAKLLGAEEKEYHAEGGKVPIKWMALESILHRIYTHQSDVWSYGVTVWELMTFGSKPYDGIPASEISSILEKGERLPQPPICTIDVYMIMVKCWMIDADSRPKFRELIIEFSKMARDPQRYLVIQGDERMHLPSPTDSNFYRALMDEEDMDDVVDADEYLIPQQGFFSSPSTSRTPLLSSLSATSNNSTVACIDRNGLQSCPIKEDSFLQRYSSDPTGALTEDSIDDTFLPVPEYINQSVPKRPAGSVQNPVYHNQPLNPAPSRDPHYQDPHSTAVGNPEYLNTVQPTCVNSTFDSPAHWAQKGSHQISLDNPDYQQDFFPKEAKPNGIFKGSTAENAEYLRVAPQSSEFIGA
Excerpt: (§1) The inhibition of EGF-R-mediated signal transmission can be detected, for example, with cells which express human EGF-R, the survival and proliferation of which depend on stimulation by EGF or TGF-alpha. An interleukin-3 (IL-3)-dependent cell line of murine origin which was changed genetically such that it expresses functional human EGF-R was used here. The proliferation of these cells, called F/L-HERc, can therefore be stimulated either by murine IL-3 or by EGF (see von Ruden, T. et al. in EMBO J. 7, 2749-2756 (1988) and Pierce, J. H. et al. in Science 239, 628-631 (1988)).
(§2) The starting material used for the F/L-HERc cells was the cell line FDC-P1, the preparation of which has been described by Dexter, T. M. et al. in J. Exp. Med. 152, 1036-1047 (1980). Alternatively, however, other growth factor-dependent cells can also be used (see, for example, Pierce, J. H. et al. in Science 239, 628-631 (1988), Shibuya, H. et al. in Cell 70, 57-67 (1992) and Alexander, W. S. et al. in EMBO J. 10, 3683-3691 (1991)). Recombinant retroviruses were used for expression of the human EGF-R cDNA (see Ullrich, A. et al. in Nature 309, 418-425 (1984)), as described in yon Ruden, T. et al., EMBO J. 7, 2749-2756 (1988), with the difference that the retroviral vector LXSN (see Miller, A. D. et al. in BioTechniques 7, 980-990 (1989)) was used for expression of the EGF-R cDNA and the line GP+E86 (see Markowitz, D. et al. in J. Virol. 62, 1120-1124 (1988)) was used as the packing cell.
(§3) The test was carried out as follows:
(§4) F/L HERc cells were cultured at 37° C. and 5% CO2 in RPMI/1640 medium (BioWhittaker), supplemented with 10% foetal bovine serum (FCS, Boehringer Mannheim), 2 mM glutamine (BioWhittaker), standard antibiotics and 20 ng/ml of human EGF (Promega). For investigation of the inhibitory activity of the compounds according to the invention, 1.5×10^4 cells per well were cultured in triplicate in 96-well plates in the above medium (200 μl), proliferation of the cells being stimulated with either EGF (20 ng/ml) or murine IL-3. Culture stocks of the cell line X63/0 mIL-3 were used as the source for IL-3 (see Karasuyama, H. et al. in Eur. J. Immunol. 18, 97-104 (1988)). The compounds according to the invention were dissolved in 100% dimethyl sulphoxide (DMSO) and added to the cultures in various dilutions, the maximum DMSO concentration being 1%. The cultures were incubated at 37° C. for 48 hours.
(§5) To determine the inhibitory activity of the compounds according to the invention, the relative cell count was measured in OD units with Cell Titer 96™ Aqueous Non-Radioactive Cell Proliferation Assay (Promega). The relative cell count was calculated in per cent of the control (F/LHERc cells without inhibitor) and the active compound concentration which inhibits the proliferation of the cells to 50% (IC50) was deduced.

F/L-HERc cells = test: Inhibition of IL-3-dependent proliferation of F/L-HERc cells; conditions: Mus musculus, murine IL-3, 48 hours
Excerpt: as §1, §2, §3, §4, §5

[1] = system: human tumour cell line KB; test: EGF/TGF-alpha-stimulated proliferation (thymidine incorporation) of KB cells; conditions: TGF-alpha 10 ng/ml or EGF 20 ng/ml, 60 hours, then [3H]-thymidine 16-18 hours, read-out: IC50 for inhibition of the EGF/TGF-alpha-stimulated KB cell proliferation
Experimental: KB cells (obtained from ATCC) were passaged in DMEM (BioWhittaker) in the presence of 10% FCS (Boehringer Mannheim), 50 μM beta-mercaptoethanol and standard antibiotics. As an indicator of EGF/TGF-alpha-stimulated cell proliferation, the EGF-inducedDNA synthesis was determined by measurement of the incorporation of radioactively labelled thymidine. For this, the celels were washed twice and 1500 cells per well were plated out in a 96-well plate in 200 μl IMDM (BioWhittaker) without serum in the presence of 50 μM beta-mercaptoethanol, standard antibiotics, TGF-alpha [10 ng/ml] or EGF [20 ng/ml] and various concentrations of the substances according to the invention (triplicates, maximum DMSO concentration 1%, see proliferation test with F/L-HERc cells). After 60 hours, [^3 H]-thymidine (0.1 μCi in 10 μl) was added for about 16-18 hours. Subsequent measurement of the thymidine incorporation gave IC50 values of 0.1-1 μM for inhibition of the EGF/TGF-alpha-stimulated KB cell proliferation for compounds 2, 6, 17, 18, 19, 72, 83, 93, 95, 96 and 104 of Example 1.

`Cc1cccc(Nc2ncnc3cnc(NC(C)(C)C)nc23)c1` [1(6), 4-[(3-Methylphenyl)amino]-6-(tert-butylamino)-pyrimido[5,4-d]pyrimidine] was tested, and the IC50 (human EGF-R) was 5 nM, the IC50 (F/L-HERc cells) was greater than 10 µM and the IC50 [1] was 100 to 1000 nM.

In the case of `Cc1cccc(Nc2ncnc3cnc(N4CCCC4)nc23)c1` [Example 1(18), 4-[(3-Methylphenyl)amino]-6-(1-pyrrolidinyl)-pyrimido[5,4-d]pyrimidine], the IC50 [1] is reported as 100 to 1000 nM.

Work on `CC(C)Nc1ncc2ncnc(Nc3cccc(Br)c3)c2n1` [Example 1(95), 4-[(3-Bromophenyl)amino]-6-(isopropylamino)-pyrimido[5,4-d]pyrimidine] yielded an IC50 [1] of 100 to 1000 nM.

`Cc1cccc(Nc2ncnc3cnc(N4CCOCC4)nc23)c1` [1(19), 4-[(3-Methylphenyl)amino]-6-(morpholino)-pyrimido[5,4-d]pyrimidine] gave an IC50 (human EGF-R) of 50 nM, an IC50 (F/L-HERc cells) greater than 10 µM and an IC50 [1] of 100 to 1000 nM.

With `Cc1cccc(Nc2ncnc3cnc(N[C@H]4CC[C@H](O)CC4)nc23)c1` [1(72), 4-[(3-Methylphenyl)amino]-6-[(trans-4-hydroxycyclohexyl)amino]-pyrimido[5,4-d]pyrimidine] the IC50 (human EGF-R) was 3 nM, the IC50 (F/L-HERc cells) was greater than 3 µM and the IC50 [1] was 100 to 1000 nM.

`CC(C)Nc1ncc2ncnc(Nc3cccc(Cl)c3)c2n1` [Example 1(96), 4-[(3-Chlorophenyl)amino]-6-(isopropylamino)-pyrim-ido[5,4-d]pyrimidine] gave an IC50 [1] of 100 to 1000 nM.

Work on `Clc1cccc(Nc2ncnc3cnc(NC4CC4)nc23)c1` [Example 1(83), 4-[(3-Chlorophenyl)amino]-6-(cyclopropylamino)-pyrimido[5,4-d]pyrimidine] yielded an IC50 [1] of 100 to 1000 nM.

In the case of `O[C@H]1CC[C@H](Nc2ncc3ncnc(Nc4cccc(Br)c4)c3n2)CC1` [Example 1(104), 4-[(3-Bromophenyl)amino]-6-[(trans-4-hydroxycyclohexyl)-amino]pyrimido[5,4-d]pyrimidine], the IC50 [1] is reported as 100 to 1000 nM.

In the case of `Cc1cccc(Nc2ncnc3cnc(Nc4ccc(N5CCCC5CO)cc4)nc23)c1` (stereo not shown) [1(193), 4-[(3-Methylphenyl)amino]-6-[4-(2-hydroxymethyl-1-pyrrolidinyl)phenylamino]-pyrimido[5,4-d]pyrimidine], the IC50 (human EGF-R) is reported as 4 nM and the IC50 (F/L-HERc cells) is reported as 10 µM.

`Cc1cccc(Nc2ncnc3cnc(NC(C)C)nc23)c1` [Example 1(2), 4-[(3-Methylphenyl)amino]-6-(isopropylamino)-pyrimido[5,4-d]pyrimidine] was tested, and the IC50 [1] was 100 to 1000 nM.

For `Cc1cccc(Nc2ncnc3cnc(NC4CC4)nc23)c1` [1(17), 4-[(3-Methylphenyl)amino]-6-(cyclopropylamino)-pyrimido[5,4-d]pyrimidine], the IC50 (human EGF-R) was 40 nM, the IC50 (F/L-HERc cells) was greater than 3 µM and the IC50 [1] was 100 to 1000 nM.

Compound `N#Cc1cccc(Nc2ncnc3cnc(NC4CC4)nc23)c1` [3(19), 4-[(3-Cyanophenyl)amino]-6-(cyclopropylamino)-pyrimido[5,4-d]pyrimidine] has an IC50 (human EGF-R) of 15 nM and an IC50 (F/L-HERc cells) greater than 3 µM.

In the case of `C#CCNc1ncc2ncnc(Nc3cccc(C)c3)c2n1` [1(23), 4-[(3-Methylphenyl)amino]-6-(propargylamino)-pyrimido[5,4-d]pyrimidine], the IC50 (human EGF-R) is reported as 25 nM and the IC50 (F/L-HERc cells) is reported as greater than 3 µM.

`Fc1ccc(Nc2ncnc3cnc(NCCN4CCOCC4)nc23)cc1Cl` [1(129), 4-[(3-Chloro-4-fluoro-phenyl)amino]-6-[2-(morpholino)-ethylamino]-pyrimido[5,4-d]pyrimidine] showed an IC50 (human EGF-R) of 8 nM and an IC50 (F/L-HERc cells) greater than 20 µM.

`Cc1cccc(Nc2ncnc3cnc(NC4CCC(=O)CC4)nc23)c1` [1(109), 4-[(3-Methylphenyl)amino]-6-[(4-oxo-cyclohexyl)amino]pyrimido[5,4-d]pyrimidine] showed an IC50 (human EGF-R) of 15 nM and an IC50 (F/L-HERc cells) of 10 µM.

`N#Cc1cc(Nc2ncnc3cnc(N[C@H]4CC[C@H](O)CC4)nc23)ccc1N` [1(201), 4-[(4-Amino-3-cyano-phenyl)amino]-6-[(trans-4-hydroxycyclohexyl)-amino]-pyrimido[5,4-d]pyrimidine] showed an IC50 (human EGF-R) of 32 nM and an IC50 (F/L-HERc cells) greater than 10 µM.

`Cc1cccc(Nc2ncnc3cnc(N[C@H]4CC[C@H](C(=O)N5CCOCC5)CC4)nc23)c1` [1(140), 4-[(3-Methylphenyl)amino]-6-[trans-4-(morpholinocarbonyl)cyclohexylamino]-pyrimido[5,4-d]pyrimidine] was tested, and the IC50 (human EGF-R) was 5 nM and the IC50 (F/L-HERc cells) was greater than 10 µM.

With `O[C@H]1CC[C@H](Nc2ncc3ncnc(Nc4cccc(Cl)c4)c3n2)CC1` [1(110), 4-[(3-Chlorophenyl)amino]-6-[(trans-4-hydroxycyclohexyl)amino]pyrimido[5,4-d]pyrimidine] the IC50 (human EGF-R) was 2 nM and the IC50 (F/L-HERc cells) was greater than 10 µM.

For `O=[N+]([O-])c1cccc(Nc2ncnc3cnc(NC4CC4)nc23)c1` [3(45), 4-[(3-Nitrophenyl)amino]-6-(cyclopropylamino)-pyrimido[5,4-d]pyrimidine], the IC50 (human EGF-R) was 20 nM and the IC50 (F/L-HERc cells) was greater than 1 µM.

With `Clc1cccc(Nc2ncnc3cnc(N4CCCC4)nc23)c1` [Example 1(93), 4-[(3-Chlorophenyl)amino]-6-(1-pyrrolidinyl)-pyrim-ido[5,4-d]pyrimidine] the IC50 [1] was 100 to 1000 nM.
